Experimental data published in US6534539B2, “Pharmaceutical composition and method for treatment of dyspepsia” (Hoffman-La Roche Inc., priority 2000, dated 2003).

Columns and labels:
Type in all cases: in vivo, human
[1] = test system: normal volunteers, clinical model of dyspepsia (gastric distension); assay: Gastrointestinal sensations (visual analogue scales) during gastric distensions and duodenal infusion of fat emulsion
Description: (§1) The reduction of dyspeptic symptoms by lipase inhibitors, particularly orlistat, was shown in human clinical studies that measured functional dyspepsia. Specifically, we measured the reduction of dyspeptic symptoms after administration of orlistat to normal volunteers (healthy subjects without a history of gastrointestinal disease (8 female and 7 male), aged 24-38 years; normal body weight (BMI (kg/m^2): females: 21.9±0.4, males: 23.4±0.4) during infusion of a fat emulsion into the duodenum in a clinical model of idopathic dyspepsia (gastric distension). BMI means body mass index.
(§2) Fat emulsions (Table 1) were infused intraduodenally via a single-lumen, naso-duodenal polyvinyl tube as described previously (Feinle, AJP2000), while the stomach was distended. Gastrointestinal sensations were assessed by a visual analog questionnaire. […]
(§3) Studies were performed in a double-blind, placebo-controlled, cross-over fashion in randomised order at least one week apart. […] At first, the minimal distending pressure (MDP) was determined by increasing intragastric pressure in steps of 1 mmHg/min. Pressure was then fixed at MDP and fasting tone recorded until variations in gastric volume were no longer observed. […] Two isobaric distensions were performed, 15 min apart from each other, by increasing intrabag pressure in steps of 1 mmHg/min, while corresponding volumes were monitored. […]

[2] = test system: normal volunteers, clinical model of dyspepsia (gastric distension); assay: Changes in gastric tone (gastric baseline volume at MDP) during duodenal infusions; settings: orlistat added to oil emulsion infused intraduodenally; p <0.05
Description: as §1
Fat emulsions (Table 1) were infused intraduodenally via a single-lumen, naso-duodenal polyvinyl tube as described previously (Feinle, AJP2000), while the stomach was distended. Gastrointestinal sensations were assessed by a visual analog questionnaire.
as §3

[3] = test system: normal volunteers, clinical model of dyspepsia (gastric distension); assay: Pressure-volume relationships during gastric distensions and duodenal infusion of fat emulsion (gastric barostat); settings: p <0.05
Description: as §1, §2, §3

CCCCCCCCCCC[C@@H](C[C@@H]1OC(=O)[C@H]1CCCCCC)OC(=O)[C@H](CC(C)C)NC=O [orlistat]
Effects of LCTs on scores for fullness, bloating, nausea, pressure and hunger ([1]; increasing intragastric pressure during duodenal fat infusion): significantly diminished | Intensity of stomach fullness and sensitivity, nausea and bloating ([1]; orlistat added to fat emulsion infused into the duodenum, gastric distension by inflatable balloon): reduced | Gastric baseline volume change during infusions [2]: completely abolished | Maximally tolerated pressure during gastric distension [3]: significantly increased
